Results reported in PMC11489226 (Archives of Toxicology, 2024).

Biological target: T1, CYP2C9 (Homo sapiens, UniProt P11712)
T1 construct: V5-His (vector-encoded) (C); expressed in transfected cells
Experiment: Metabolism in transgenic HEK293 cells expressing CYP2C9
Assay type: in vitro ADME
Conditions: HEK293CYP2C9; 10 µM substrate, 24 h
Method: For the generation of transgenic cell lines, we used semi-adherent HEK293 cells (DSMZ, ACC305, human embryonic kidney cells) which were cultured on a daily basis in DMEM medium supplemented with 10% (FCS) and 1% penicillin/streptomycin. In a first step CYP1A2, CYP2C8, CYP2C9, CYP3A4, CYP2A6, and CYP2E1 cDNA were cloned into the plasmid pcDNATM3.1/V5-His TOPO® using human liver RNA as a template and using the following primers: CYP1A2 for5′-[…]-3′, CYP1A2 rev 5′-[…]-3′; CYP2C8 for 5′-[…]-3′, CYP2C8 rev 5′-[…]-3′; CYP2C9 for 5′-[…]-3′, CYP2C9 rev 5′-[…]-3′; CYP3A4 for 5′-[…]-3′, CYP3A4 rev 5′-[…]-3′, CYP2A6 for 5′-[…]-3′, CYP2A6 rev 5′-[…]-3′; CYP2E1 for 5′-[…]-3′, CYP2E1 rev 5′-[…]-3′. Final constructs were verified with Sanger DNA sequencing and restriction digestion. For transfection, 3 × 10^6 HEK293 cells were pre-incubated in a 10 cm dish in DMEM medium with 10% FCS, but without antibiotics, for 18 to 24 h. When the cells reached approximately 70% confluency, they were transfected using TransIT-LT1 transfection reagent (Biozol, Eiching, Germany). […]
HEK293 cells overexpressing the respective CYP enzymes were seeded onto 6-well plates and were treated with or without 10 µM of the respective probe drug in DMEM medium for 24 hours at 37 °C and 5 % CO2. […] Analytes were measured by LC-MS/MS either in methanol cell lysates or in DMEM supernatant. […]

T1 sequence (P11712 whole entry): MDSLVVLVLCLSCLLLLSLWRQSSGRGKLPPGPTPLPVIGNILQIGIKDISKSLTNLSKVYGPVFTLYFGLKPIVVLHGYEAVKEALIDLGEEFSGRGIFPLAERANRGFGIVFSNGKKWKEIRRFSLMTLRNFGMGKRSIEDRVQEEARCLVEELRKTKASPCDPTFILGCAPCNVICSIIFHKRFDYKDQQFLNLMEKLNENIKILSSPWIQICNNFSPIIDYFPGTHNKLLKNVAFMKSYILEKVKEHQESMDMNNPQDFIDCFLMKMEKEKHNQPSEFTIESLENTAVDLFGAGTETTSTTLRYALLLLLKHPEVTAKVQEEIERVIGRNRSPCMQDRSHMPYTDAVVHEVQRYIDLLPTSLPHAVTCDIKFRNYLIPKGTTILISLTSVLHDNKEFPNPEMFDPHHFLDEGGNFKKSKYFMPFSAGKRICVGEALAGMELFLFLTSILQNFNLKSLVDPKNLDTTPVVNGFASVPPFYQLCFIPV

Cc1cccc(Nc2ccncc2S(=O)(=O)NC(=O)NC(C)C)c1 [Torasemide]
Conversion product: Hydroxy torasemide
